Results from patent US8530489B2 (Vertex Pharmaceuticals Incorporated, priority 2006, dated 2013).

The compounds below were run against PLK1 (Homo sapiens, UniProt P53350) (assay: PLK1 Inhibition Assay I (radioactive-phosphate incorporation)). Conditions: Ki(app); PLK1 Inhibition Assay I or II (table does not say which).
Type: biochemical
Outline: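 Ki(app) values came from non-linear regression of initial rates after background subtraction, with phosphopeptide measured by phosphocellulose filter binding and scintillation counting. PLK1 at 2 nM was preincubated with compound (typically from 10 μM, 2-fold dilutions) for 10 min, then run 240 min at 25° C with 350 μM [γ-33P]ATP and 450 μM peptide substrate in HEPES pH 7.5 buffer.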

Sequence of PLK1 (P53350 whole entry): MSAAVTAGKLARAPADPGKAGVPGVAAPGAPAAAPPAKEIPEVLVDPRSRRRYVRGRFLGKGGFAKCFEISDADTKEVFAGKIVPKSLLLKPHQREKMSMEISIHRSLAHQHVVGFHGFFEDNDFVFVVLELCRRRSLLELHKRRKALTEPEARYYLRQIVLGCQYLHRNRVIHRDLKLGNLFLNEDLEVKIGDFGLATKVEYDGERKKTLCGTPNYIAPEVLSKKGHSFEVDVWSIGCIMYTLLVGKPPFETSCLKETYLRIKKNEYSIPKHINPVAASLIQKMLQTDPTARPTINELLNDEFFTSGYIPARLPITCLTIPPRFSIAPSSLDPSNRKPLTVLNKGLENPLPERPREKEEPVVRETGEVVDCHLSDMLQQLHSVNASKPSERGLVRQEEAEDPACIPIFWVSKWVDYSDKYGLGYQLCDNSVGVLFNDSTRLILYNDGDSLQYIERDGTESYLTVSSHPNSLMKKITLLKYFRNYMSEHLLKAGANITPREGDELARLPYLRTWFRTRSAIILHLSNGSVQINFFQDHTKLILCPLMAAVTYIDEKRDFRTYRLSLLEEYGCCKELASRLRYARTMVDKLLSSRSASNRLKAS

| Compound | Ki |
| --- | --- |
| C[C@@H](Nc1ncc(C#N)c(-c2c[nH]c3ncc(C(F)(F)F)cc23)n1)c1ccc(NC(=O)C2CC2)cc1 [Compound I-137, N-(4-((1R)-1-(5-cyano-4-(5-(trifluoromethyl)-1H-pyrrolo[2,3-b]pyridin-3-yl)pyrimidin-2-ylamino)ethyl)phenyl)cyclopropanecarboxamide] | < 3 nM |
| COCC(C)Nc1ncc(C#N)c(-c2c[nH]c3ncc(C(F)(F)F)cc23)n1 (stereo not shown) [Compound I-82, 2-(1-methoxypropan-2-ylamino)-4-(5-(trifluoromethyl)-1H-pyrrolo[2,3-b]pyridin-3-yl)pyrimidine-5-carbonitrile] | 3 to 40 nM |
| COC[C@@H](Nc1ncc(C#N)c(-c2c[nH]c3ncc(C(F)(F)F)cc23)n1)c1ccccc1 [Compound I-43, 2-((S)-2-methoxy-1-phenylethylamino)-4-(5-(trifluoromethyl)-1H-pyrrolo[2,3-b]pyridin-3-yl)pyrimidine-5-carbonitrile] | > 40 nM |
| C[C@@H](Nc1ncc(C#N)c(-c2c[nH]c3ncc(C(F)(F)F)cc23)n1)[C@H]1CC[C@H](NS(C)(=O)=O)CC1 (single isomer, unassigned) [Compound I-202] | < 3 nM |
| CC(Nc1ncc(C#N)c(-c2c[nH]c3ncc(C(F)(F)F)cc23)n1)C1(F)CCN(CC#N)CC1 (stereo not shown) [Compound I-238, 2-(1-(1-(cyanomethyl)-4-fluoropiperidin-4-yl)ethylamino)-4-(5-(trifluoromethyl)-1H-pyrrolo[2,3-b]pyridin-3-yl)pyrimidine-5-carbonitrile] | < 3 nM |
| CC(C)[C@@H](N)C(=O)N1CCC([C@@H](C)Nc2ncc(C#N)c(-c3c[nH]c4ncc(C(F)(F)F)cc34)n2)CC1 [Compound I-229, 2-((R)-1-(1-((R)-2-amino-3-methylbutanoyl)piperidin-4-yl)ethylamino)-4-(5-(trifluoromethyl)-1H-pyrrolo[2,3-b]pyridin-3-yl)pyrimidine-5-carbonitrile] | < 3 nM |
| CC(Nc1ncc(C#N)c(-c2c[nH]c3ncc(C(F)(F)F)cc23)n1)C1CCN(S(=O)(=O)C2CC2)CC1 (stereo not shown) [Compound I-158, 2-(1-(1-(cyclopropylsulfonyl)piperidin-4-yl)ethylamino)-4-(5-(trifluoromethyl)-1H-pyrrolo[2,3-b]pyridin-3-yl)pyrimidine-5-carbonitrile] | < 3 nM |
| CC(C)(C)OC(=O)N1CCC(CNc2ncc(C#N)c(-c3c[nH]c4ncc(C(F)(F)F)cc34)n2)CC1 [Compound I-28, tert-butyl 4-((5-cyano-4-(5-(trifluoromethyl)-1H-pyrrolo[2,3-b]pyridin-3-yl)pyrimidin-2-ylamino)methyl)piperidine-1-carboxylate] | > 40 nM |
| CC(C)(Nc1ncc(C#N)c(-c2c[nH]c3ncc(C(F)(F)F)cc23)n1)C(=O)NCCC(F)(F)F [IA-1, 2-(5-cyano-4-(5-(trifluoromethyl)-1H-pyrrolo[2,3-b]pyridin-3-yl)pyrimidin-2-ylamino)-2-methyl-N-(3,3,3-trifluoropropyl)propanamide] | > 40 nM |
| C[C@@H](Nc1ncc(C#N)c(-c2c[nH]c3ncc(C(F)(F)F)cc23)n1)c1ccc(NS(=O)(=O)C2CC2)cc1 [Compound I-168, N-(4-((1R)-1-(5-cyano-4-(5-(trifluoromethyl)-1H-pyrrolo[2,3-b]pyridin-3-yl)pyrimidin-2-ylamino)ethyl)phenyl)cyclopropanesulfonamide] | < 3 nM |
| C=C1CC(C(C)Nc2ncc(C#N)c(-c3c[nH]c4ncc(C(F)(F)F)cc34)n2)C1 (stereo not shown) [Compound I-214, 2-(1-(3-methylenecyclobutyl)ethylamino)-4-(5-(trifluoromethyl)-1H-pyrrolo[2,3-b]pyridin-3-yl)pyrimidine-5-carbonitrile] | 3 to 40 nM |
| CNCCCN(C)c1ccc([C@@H](C)Nc2ncc(C#N)c(-c3c[nH]c4ncc(C(F)(F)F)cc34)n2)cn1 [Compound I-289, 2-((R)-1-(6-(methyl(3-(methylamino)propyl)amino)pyridin-3-yl)ethylamino)-4-(5-(trifluoromethyl)-1H-pyrrolo[2,3-b]pyridin-3-yl)pyrimidine-5-carbonitrile] | < 3 nM |
| C[C@@H](Nc1ncc(C#N)c(-c2c[nH]c3ncc(C(F)(F)F)cc23)n1)c1ccc(N[C@H]2CCN(C)C2)nc1 [Compound I-280, 2-(1-(6-((S)-1-methylpyrrolidin-3-ylamino)pyridin-3-yl)ethylamino)-4-(5-(trifluoromethyl)-1H-pyrrolo[2,3-b]pyridin-3-yl)pyrimidine-5-carbonitrile] | 3 to 40 nM |
| CSc1ncc(C#N)c(-c2c[nH]c3ncc(C(F)(F)F)cc23)n1 [II-1, 2-(methylthio)-4-(5-(trifluoromethyl)-1H-pyrrolo[2,3-b]pyridin-3-yl)pyrimidine-5-carbonitrile] | > 40 nM |
| CC(C)Sc1ncc(C#N)c(-c2c[nH]c3ncc(C(F)(F)F)cc23)n1 [II-12, 2-(isopropylthio)-4-(5-(trifluoromethyl)-1H-pyrrolo[2,3-b]pyridin-3-yl)pyrimidine-5-carbonitrile] | > 40 nM |
| C[C@@H](Nc1ncc(C#N)c(-c2c[nH]c3ncc(C(F)(F)F)cc23)n1)[C@H]1CC[C@H](O)CC1 [Compound I-179, 2-((R)-1-((1r,4R)-4-hydroxycyclohexyl)ethylamino)-4-(5-(trifluoromethyl)-1H-pyrrolo[2,3-b]pyridin-3-yl)pyrimidine-5-carbonitrile] | < 3 nM |
| C[C@H](N)CC(=O)N1CCC([C@@H](C)Nc2ncc(C#N)c(-c3c[nH]c4ncc(C(F)(F)F)cc34)n2)CC1 [Compound I-244, 2-((R)-1-(1-((S)-3-aminobutanoyl)piperidin-4-yl)ethylamino)-4-(5-(trifluoromethyl)-1H-pyrrolo[2,3-b]pyridin-3-yl)pyrimidine-5-carbonitrile] | < 3 nM |
| N#Cc1cnc(NCC2CCN(Cc3ccccc3)CC2)nc1-c1c[nH]c2ncc(C(F)(F)F)cc12 [Compound I-89, 2-((1-benzylpiperidin-4-yl)methylamino)-4-(5-(trifluoromethyl)-1H-pyrrolo[2,3-b]pyridin-3-yl)pyrimidine-5-carbonitrile] | > 40 nM |
| CCS(=O)(=O)N1CCC(C(C)Nc2ncc(C#N)c(-c3c[nH]c4ncc(C(F)(F)F)cc34)n2)CC1 (stereo not shown) [Compound I-153, 2-(1-(1-(ethylsulfonyl)piperidin-4-yl)ethylamino)-4-(5-(trifluoromethyl)-1H-pyrrolo[2,3-b]pyridin-3-yl)pyrimidine-5-carbonitrile] | < 3 nM |
| Cc1ccc(S(=O)(=O)N2CCC(C(C)Nc3ncc(C#N)c(-c4c[nH]c5ncc(C(F)(F)F)cc45)n3)CC2)cc1 (stereo not shown) [Compound I-165, 2-(1-(1-tosylpiperidin-4-yl)ethylamino)-4-(5-(trifluoromethyl)-1H-pyrrolo[2,3-b]pyridin-3-yl)pyrimidine-5-carbonitrile] | 3 to 40 nM |

Now from value to compound:

| Ki | Compound |
| --- | --- |
| 3 to 40 nM | N#Cc1cnc(NC[C@H](O)CO)nc1-c1c[nH]c2ncc(C(F)(F)F)cc12 [Compound I-114, 2-((S)-2,3-dihydroxypropylamino)-4-(5-(trifluoromethyl)-1H-pyrrolo[2,3-b]pyridin-3-yl)pyrimidine-5-carbonitrile] |
| < 3 nM | CC(Nc1ncc(C#N)c(-c2c[nH]c3ncc(C(F)(F)F)cc23)n1)c1ccc(S(C)(=O)=O)cc1 (stereo not shown) [Compound I-155, 2-(1-(4-(methylsulfonyl)phenyl)ethylamino)-4-(5-(trifluoromethyl)-1H-pyrrolo[2,3-b]pyridin-3-yl)pyrimidine-5-carbonitrile] |
| > 40 nM | CNc1ncc(C#N)c(-c2c[nH]c3ncc(C(F)(F)F)cc23)n1 [Compound I-2, 2-(methylamino)-4-(5-(trifluoromethyl)-1H-pyrrolo[2,3-b]pyridin-3-yl)pyrimidine-5-carbonitrile] |
| < 3 nM | C[C@@H](Nc1ncc(C#N)c(-c2c[nH]c3ncc(C(F)(F)F)cc23)n1)c1ccccc1 [Compound I-6, 2-((R)-1-phenylethylamino)-4-(5-(trifluoromethyl)-1H-pyrrolo[2,3-b]pyridin-3-yl)pyrimidine-5-carbonitrile] |
| 3 to 40 nM | N#Cc1cnc(NCc2ccc(O)cc2)nc1-c1c[nH]c2ncc(C(F)(F)F)cc12 [Compound I-90, 4-(5-(1,1-Trifluoromethyl)-1H-pyrrolo[2,3-b]pyridin-3-yl)-2-(4-hydroxybenzylamino)pyrimidine-5-carbonitrile] |
| > 40 nM | C[C@@H](Nc1ncc(C#N)c(-c2c[nH]c3ncc(C(F)(F)F)cc23)n1)c1ccc(Br)cc1 [Compound I-33, 2-((R)-1-(4-bromophenyl)ethylamino)-4-(5-(trifluoromethyl)-1H-pyrrolo[2,3-b]pyridin-3-yl)pyrimidine-5-carbonitrile] |
| 3 to 40 nM | C[C@@H](O)CNc1ncc(C#N)c(-c2c[nH]c3ncc(C(F)(F)F)cc23)n1 [Compound I-97, 2-((R)-2-hydroxypropylamino)-4-(5-(trifluoromethyl)-1H-pyrrolo[2,3-b]pyridin-3-yl)pyrimidine-5-carbonitrile] |
| > 40 nM | N#Cc1cnc(NCc2ccc(C(F)(F)F)nc2)nc1-c1c[nH]c2ncc(C(F)(F)F)cc12 [Compound I-32, 4-(5-(trifluoromethyl)-1H-pyrrolo[2,3-b]pyridin-3-yl)-2-((6-(trifluoromethyl)pyridin-3-yl)methylamino)pyrimidine-5-carbonitrile] |
| > 40 nM | N#Cc1cnc(NCc2ccc(Oc3ccccc3)cc2)nc1-c1c[nH]c2ncc(C(F)(F)F)cc12 [Compound I-46, 2-(4-phenoxybenzylamino)-4-(5-(trifluoromethyl)-1H-pyrrolo[2,3-b]pyridin-3-yl)pyrimidine-5-carbonitrile] |
| > 40 nM | N#CCNc1ncc(C#N)c(-c2c[nH]c3ncc(C(F)(F)F)cc23)n1 [Compound I-71, 2-(cyanomethylamino)-4-(5-(trifluoromethyl)-1H-pyrrolo[2,3-b]pyridin-3-yl)pyrimidine-5-carbonitrile] |
| > 40 nM | CC(C)Oc1ccc(CNc2ncc(C#N)c(-c3c[nH]c4ncc(C(F)(F)F)cc34)n2)cc1 [Compound I-41, 2-(4-isopropoxybenzylamino)-4-(5-(trifluoromethyl)-1H-pyrrolo[2,3-b]pyridin-3-yl)pyrimidine-5-carbonitrile] |
